Results published in patent publication US20200078468A1, “NEUROTENSIN RECEPTOR BINDING CONJUGATES AND FORMULATIONS THEREOF” (priority 2016, published 2020).
Numbered stars: 1 amine (or outer) side, 2 acyl side, 3 side chain; on linkers, the order of the positions; unused ones are H or OH. Bridge positions count the residues as written; N and C are the ends. Square brackets hold non-standard residues; d marks the D form. Peptide text beside a SMILES is read from it. I, II: the chains in the order shown. * marks the point of attachment. Propanoyl(3-SS-DM1) = COc1cc2cc(c1Cl)N(C)C(=O)C[C@H](OC(=O)[C@H](C)N(C)C(=O)CCSSCCC(=O)*)[C@]1(C)O[C@H]1[C@H](C)[C@@H]1C[C@@](O)(NC(=O)O1)[C@H](OC)/C=C/C=C(\C)C2; X4 = CCc1c2c(nc3ccc(O)cc13)-c1cc3c(c(=O)n1C2)COC(=O)[C@@]3(CC)OC(=O)OCCS*; Hexanoyl(6-succinimido-3yl) = O=C1CC([*:1])C(=O)N1CCCCCC(=O)[*:2]; Dolaproine = CO[C@@H]([C@@H]1CCCN1)[C@@H](C)C(=O)O; Dil = CC[C@H](C)[C@H](NC)[C@@H](CC(=O)O)OC; PABC = O=C(OCc1ccc(N[*:1])cc1)[*:2]; NMeR = CN[C@@H](CCCNC(=N)N)C(=O)O; X1 = C[C@@H](N*)[C@@H](O)c1ccccc1; Cit = NC(=O)NCCC[C@H](N)C(=O)O; Pen = CC(C)(S)[C@H](N)C(=O)O; Tle = CC(C)(C)[C@H](N)C(=O)O; NMeV = CN[C@H](C(=O)O)C(C)C

Columns and labels:
[1] = test system: SW48 (human colon cancer cells); test: inhibition of SW48 cell proliferation (CellTiter Glo); type: cell-based; conditions: NTSR1 targeted compound; 72 hrs; read-out: SW-48 proliferation IC50
Method in brief: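 Cells plated at 5,000/well and grown 24 hrs were exposed to conjugates for 72 hrs at 37° C, 5% CO2, in a ten-point three-fold series starting at 10 μM; vehicle was 0.01% DMSO. Proliferation was read by CellTiter Glo. % inhibition was taken relative to vehicle, with IC50 from four-parameter nonlinear regression.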

human NTSR1 = target: T1, human NTSR1 (Homo sapiens, UniProt P30989); test: radioligand-receptor binding assay, [125I] labeled neurotensin (Eurofins Panlabs); conditions: [125I] neurotensin 0.02 nM, membranes from NTSR1 expressing HEK-293 cells, 45 minute incubation, Cheng and Prusoff; read-out: NTSR1 binding Ki
T1 construct: host or cells: HEK-293 cells (membrane preparations)
Method in brief: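 Membranes from HEK-293 cells expressing human NTSR1 incubated 45 min with 0.02 nM [125I]neurotensin and conjugate in 6-point 3-fold dilutions from 100 or 10 nM; bound radioactivity counted after filtration. IC50 by nonlinear regression, converted to Ki via Cheng–Prusoff using historical ligand Kd.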

[2] = test system: HT-29 cells (human colon cancer cells); test: inhibition of HT29 cell proliferation (Cell Titer Glo 2.0); type: cell-based; conditions: NTSR1 targeted compound; 72 h
Experimental: Conjugates were assessed in an in vitro assay evaluating inhibition of cell proliferation. HT-29 cells (human colon cancer cells) were seeded in white walled 96-well plates at 10,000 cells per well in 100 μl McCoy's 5a (Invitrogen) media supplemented with 10% Fetal Bovine Serum (Invitrogen). After allowing cells to settle overnight, 5 μl of 20× test article was added to each well in replicate and incubated for 72 h. 72 hours after addition of compound, plates were removed from incubator and allowed to cool to room temperature. 50 μl of Cell Titer Glo 2.0 (Promega) was added to each well, incubated for 15 minutes, and plates were read on Glomax luminometer (Promega) using the Cell Titer Glo protocol. Raw luminometer readings for each plate were transformed by dividing the experimental well into the mean of untreated control wells. This is reported as ratio of untreated, and is plotted with Prism 6 software (Graph Pad) and fitted with a 4-parameter, variable slope curve.
Conjugates are assessed for receptor-dependent cytotoxicity by the difference between an NTSR1-targeting conjugate, and the corresponding conjugate with the same linker moiety and active agent where the NTSR1-targeting domain has been scrambled.

T1 sequence (P30989 whole entry): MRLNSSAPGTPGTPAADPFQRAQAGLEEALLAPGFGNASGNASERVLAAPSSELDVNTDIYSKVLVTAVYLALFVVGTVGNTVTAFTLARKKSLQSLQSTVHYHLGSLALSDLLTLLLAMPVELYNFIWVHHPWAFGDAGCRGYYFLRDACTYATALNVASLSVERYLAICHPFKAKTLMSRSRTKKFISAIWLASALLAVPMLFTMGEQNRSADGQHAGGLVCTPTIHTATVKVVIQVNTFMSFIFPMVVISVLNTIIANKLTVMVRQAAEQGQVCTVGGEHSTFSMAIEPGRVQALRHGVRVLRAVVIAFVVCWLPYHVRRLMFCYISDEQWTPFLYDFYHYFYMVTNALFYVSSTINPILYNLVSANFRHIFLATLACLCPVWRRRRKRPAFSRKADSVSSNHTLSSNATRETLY

Row | Compound | IC50 [1] [nM] | Ki (human NTSR1) [nM] | IC50 [2] [nM]
1 | COc1cc2cc(c1Cl)N(C)C(=O)C[C@H](OC(=O)[C@H](C)N(C)C(=O)CCSSCCC(=O)NCCCC[C@H](NC(C)=O)C(=O)N1CCC[C@H]1C(=O)N(C)[C@@H](CCCNC(=N)N)C(=O)N[C@@H](CCCNC(=N)N)C(=O)N1CCC[C@H]1C(=O)N[C@@H](Cc1ccc(O)cc1)C(=O)N[C@H](C(=O)N[C@@H](CC(C)C)C(=O)O)C(C)(C)C)[C@]1(C)O[C@H]1[C@H](C)[C@@H]1C[C@@](O)(NC(=O)O1)[C@H](OC)/C=C/C=C(\C)C2 [Compound 13] (Ac-K(Propanoyl(3-SS-DM1))P[NMeR]RPY[Tle]L-OH) | 1.6 | 0.48 | 4.9
2 | COc1cc2cc(c1Cl)N(C)C(=O)C[C@H](OC(=O)[C@H](C)N(C)C(=O)CCSC1CC(=O)N(CCCNC(=O)CNC(=O)[C@H](CC(C)C)NC(=O)[C@H](Cc3ccccc3)NC(=O)CNC(=O)CCC(=O)NCCCC[C@H](NC(C)=O)C(=O)N3CCC[C@H]3C(=O)N(C)[C@@H](CCCNC(=N)N)C(=O)N[C@@H](CCCNC(=N)N)C(=O)N3CCC[C@H]3C(=O)N[C@@H](Cc3ccc(O)cc3)C(=O)N[C@H](C(=O)N[C@@H](CC(C)C)C(=O)O)C(C)(C)C)C1=O)[C@]1(C)O[C@H]1[C@H](C)[C@@H]1C[C@@](O)(NC(=O)O1)[C@H](OC)/C=C/C=C(\C)C2 (stereo partly shown) [Compound 14] | 2.2 | 0.78 | 17
3 | COc1cc2cc(c1Cl)N(C)C(=O)C[C@H](OC(=O)[C@H](C)N(C)C(=O)CCSC1CC(=O)N(CCCCCC(=O)NCCCC[C@H](NC(C)=O)C(=O)N3CCC[C@H]3C(=O)N(C)[C@@H](CCCNC(=N)N)C(=O)N[C@@H](CCCNC(=N)N)C(=O)N3CCC[C@H]3C(=O)N[C@@H](Cc3ccc(O)cc3)C(=O)N[C@H](C(=O)N[C@@H](CC(C)C)C(=O)O)C(C)(C)C)C1=O)[C@]1(C)O[C@H]1[C@H](C)[C@@H]1C[C@@](O)(NC(=O)O1)[C@H](OC)/C=C/C=C(\C)C2 (stereo partly shown) [Compound 15] | 70 | 1.08 | 96
4 | CC[C@H](C)[C@@H]([C@@H](CC(=O)N1CCC[C@H]1[C@H](OC)[C@@H](C)C(=O)N[C@H](C)[C@@H](O)c1ccccc1)OC)N(C)C(=O)[C@@H](NC(=O)[C@H](C(C)C)N(C)C(=O)OCc1ccc(NC(=O)[C@H](CCCNC(N)=O)NC(=O)[C@@H](NC(=O)CCCCCN2C(=O)CC(SC(C)(C)[C@H](NC(C)=O)C(=O)N3CCC[C@H]3C(=O)N[C@@H](CCCNC(=N)N)C(=O)N[C@@H](CCCNC(=N)N)C(=O)N3CCC[C@H]3C(=O)N[C@@H](Cc3ccc(O)cc3)C(=O)N[C@H](C(=O)N[C@@H](CC(C)C)C(=O)O)C(C)(C)C)C2=O)C(C)C)cc1)C(C)C (stereo partly drawn) [Compound 53] (I: Ac-[Pen]PRRPY[Tle]L-OH / II: V[Cit][PABC][NMeV]V[Dil][Dolaproine]-X1; linker I:1-II:N via Hexanoyl(6-succinimido-3yl)) | 17 | 3.15 | 16
5 | CC[C@H](C)[C@@H]([C@@H](CC(=O)N1CCC[C@H]1[C@H](OC)[C@@H](C)C(=O)N[C@H](C)[C@@H](O)c1ccccc1)OC)N(C)C(=O)[C@@H](NC(=O)[C@H](C(C)C)N(C)C(=O)OCc1ccc(NC(=O)[C@H](CCCNC(N)=O)NC(=O)[C@@H](NC(=O)CCCCCN2C(=O)CC(SC(C)(C)[C@H](NC(C)=O)C(=O)N3CCC[C@H]3C(=O)N[C@@H](CCCCN)C(=O)N[C@@H](CCCNC(=N)N)C(=O)N3CCC[C@H]3C(=O)N[C@@H](Cc3ccc(O)cc3)C(=O)N[C@H](C(=O)N[C@@H](CC(C)C)C(=O)O)C(C)(C)C)C2=O)C(C)C)cc1)C(C)C (stereo partly drawn) [Compound 59] (I: Ac-[Pen]PKRPY[Tle]L-OH / II: V[Cit][PABC][NMeV]V[Dil][Dolaproine]-X1; linker I:1-II:N via Hexanoyl(6-succinimido-3yl)) | 65 | 6.98 | 
6 | CCc1c2c(nc3ccc(O)cc13)-c1cc3c(c(=O)n1C2)COC(=O)[C@@]3(CC)OC(=O)OCCSSC(C)(C)[C@H](NC(C)=O)C(=O)N1CCC[C@H]1C(=O)N[C@@H](CCCNC(=N)N)C(=O)N[C@@H](CCCNC(=N)N)C(=O)N1CCC[C@H]1C(=O)N[C@@H](Cc1ccc(O)cc1)C(=O)N[C@H](C(=O)N[C@@H](CC(C)C)C(=O)O)C(C)(C)C [Compound 63] (Ac-[Pen](X4)PRRPY[Tle]L-OH) | 226 | 1.89 | 
